The subject of one assay is LNCaP/AR-luc cells. Briefly: Castration resistant PCa subcutaneous implantation, tumor outgrowth. Type of assay: in vivo, mice. Conditions: subcutaneous implants, 80 mg/kg KBU2046 oral, treatment from 4 weeks. The procedure: To complete our assessments of the androgen related paradigm, the effect of KBU2046 on resistance to hormone therapy was evaluated. The outgrowth of LNCaP/AR-luc cells in castrate mice is routinely utilized as a model to emulate the transition to a castration resistant phenotype (Tran et al., Science 324, 787-790 (2009)). In this model, tumor outgrowth is detectable ˜8 weeks post implantation, and growth kinetics are typically monitored until 16 weeks post implantation. […]
LNCaP or VCaP cells cultured in hormone free media were treated with R1881 (R), KBU2046 (46) and/or enzalutamide (E). […] PSA expression was measured by qRT/PCR, normalized to GAPDH and expressed as a percent of control cells (N=3 replicates); * denotes P<0.05 for groups separated by bar. […] Data are the number of viable cells, expressed as % of control (N=3 replicates); * P<0.05 compared to control. […] Data are tumor size, expressed as luminescence intensity. All data are expressed as mean±SEM.
Castration resistant PCa subcutaneous implantation: 6-7 week old male athymic mice received trans-scrotal bilateral orchiectomy with a single incision in the midline of scrotums under general anesthesia and then allowed to recover for 10 days. […] Twice weekly tumor measurements were performed and androgen receptor activity monitored biweekly through IVIS imaging.

The next assay deals with PC3-M cells. Kind of assay: PCa subcutaneous implantation, tumor growth. The format is in vivo. The note with it: oral 80 mg KBU2046/kg, weekly intraperitoneal docetaxel 20 mg/kg, KBU2046 added to control or docetaxel treated mice. On the procedure:
FIG. 1A depicts the effect of chemotherapy on the growth of androgen independent PC3-M PCa cells in vitro. Data are the mean±SEM (N=3 replicates) of cell viability in a 3 day growth assay in the presence of 10 μM KBU2046 or vehicle (control) treated with docetaxel or cabazitaxel. FIG. 1B depicts the effect of chemotherapy on the growth of androgen independent PCa cells in vivo. Mice received subcutaneous implants of PC3-M cells, were monitored until tumors were detectable (250 mm^3), and then treated daily with oral 80 mg KBU2046/kg (46) or vehicle (CO) and with weekly intraperitoneal docetaxel (doc) at 0 or 20 mg/kg, beginning on day 1, and tumor size measured. Data are mean±SEM, with N=20 mice per cohort.
PCa subcutaneous implantation: 2.5×10^5 PC3-M cells in sterile PBS were implanted into the right flank of 6-7 week old male athymic nude mice (Charles River) and tumor growth measurements were performed twice a week as previously described by us (Gordon et al., Chemotherapy-induced monoamine oxidase expression in prostate carcinoma functions as a cytoprotective resistance enzyme and associates with clinical outcomes. PLoS One 9, e104271 (2014)). […] Tumor measurements were obtained in a blinded fashion, and tumor volumes were calculated with the following formula: length×(width)^2×0.5.

The next assay relates to RAW 267.4 cells. Briefly: Osteoclast morphology and maturation (actin/DAPI immunofluorescence, TRAP staining). The format is cell-based, mouse. The text has this:
Treatment of RAW 267.4 cells with KBU2046 induces several structural and functional changes. It reduces RANKL-mediated formation of multinucleated cells, and those that do form have lower numbers of nuclei (see 40× panels, FIG. 4B). The characteristic prominent actin ring (white arrow) surrounding the resorptive cavity (yellow arrow) is readily apparent in control cells treated with RANKL ligand, but is lacking in KBU2046-treated cells (100×, panels). Consistent with it inhibiting maturation of RAW 267.4 cells, TRAP staining is decreased in KBU2046-treated cells (FIG. 4C).
FIG. 4 represents the KBU2046 inhibition of osteoclast function. FIG. 4A compares effects on Raf1 activation. RAW 267.4 cells were treated with RANKL for 4 days, treated with 10 μM KBU2046 for the indicated time periods, and Western blot for the denoted proteins performed. (B) Effects on cell morphology. RAW 267.4 cells were treated with RANKL and with KBU2046 for 4 days, or not, and denoted, and stained for actin (green) and DAPI (blue); white arrow denotes an actin ring, yellow arrow a resorptive cavity. Representative immunofluorescent images are depicted. (C) Tartrate resistant acid phosphatase (TRAP) expression. Cells were treated as in B, stained for TRAP (denoted by presence of red), and representative images from light microscopy depicted. (D) Bone degradation. RAW 267.4 cells were plated onto Osteo Assay plates, treated with RANKL for 6 days and with KBU2046 (or vehicle for controls) as indicated and bone surface area quantified. Data are the mean±SEM (N=3 replicates) of bone surface area, expressed as the percentage of control cells; * denotes P<0.05 compared to control.
Raw 264.7 cells were grown in differentiation medium (described below), with or without KBU2046, for 4 days on a Chamber Slide (Nunc Lab-Tek). Chambers were washed once with PBS, followed by 10-minute fixation in cold 10% neutral-buffered formalin (VWR) and a post-fixation wash with PBS. […] The cells were then incubated for 2 hours at 4° C. in Dylight Phallodin (Cell Signaling technology, #12935) antibody diluted 1:40 in 1×PBS with 1% BSA and 0.3% Triton X-100. Subsequently, the slide was washed once with PBS, a coverslip mounted with ProLong Gold Antifade Reagent with DAPI (Cell Signaling Technology, #8961), and imaged on a Confocal Microscope (Nikon/Yokogawa Spinning Disc).

Molecules are shown by their SMILES.

`O=C1c2ccccc2OCC1c1ccc(F)cc1` (stereo not drawn) [KBU2046, 3-(4-fluorophenyl)chroman-4-one]: the “tumor growth (outgrowth in castrate mice)” value with LNCaP/AR-luc cells is “did not alter”. Besides, the tumor growth result in the assay with PC3-M cells is “did not significantly affect”. Further, in the assay with RAW 267.4 cells (RANKL and KBU2046 for 4 days), the “RANKL-mediated formation of multinucleated cells” value is recorded as “reduces”, the TRAP staining entry is “decreased” and the “actin ring surrounding the resorptive cavity” value is “lacking”. Further, the “cellular extensions of undifferentiated cells” value in the assay with RAW 267.4 cells (absence of RANKL) was “markedly reduces”.
